Patent US10760052B2, “Method of inhibiting tau phosphorylation” (priority 2012, dated 2020)

Experiments:
[1] = biological target: T1, α7nAChR-FLNA complex (Rattus norvegicus, UniProt A0A8I5ZV49); experiment: Aβ42-induced α7nAChR-FLNA association in rat frontal cortical synaptosomes (co-immunoprecipitation/Western blot); type: cell-based; conditions: 1 or 10 nM compound, simultaneously or 10 minutes prior to Aβ42 (0.1 μM)
T1 construct: from tissue; host or cells: rat frontal cortex synaptosomes
Description: The α7nAChR-FLNA complexes in the solubilized synaptosomes were immunoprecipitated with immobilized anti-FLNA and the α7nAChR and FLNA levels in the anti-FLNA immunoprecipitates determined by Western blotting (FIG. 2A) and quantified by densitometry (FIG. 2B). n=3. […] The letter designation “M” that accompanies many of the “C-series” compounds is omitted from FIG. 2, the remaining figures and most discussions of the figures and compounds hereinafter for ease in expression. Structural formulas of the compounds used in this and the other figures are provided hereinafter. […]

[2] = test system: tau protein phosphorylated at S202, T231 and T181; experiment: Aβ42-induced tau phosphorylation in rat frontal cortical synaptosomes; type: cell-based; conditions: 1 or 10 nM compound, simultaneously or 10-minute pretreatment; Aβ42 0.1 μM
Description: FIG. 4 in four panels as FIGS. 4A-4D, illustrates that FLNA-binding compounds reduce tau phosphorylation at all three phosphorylation sites. […] The three phosphoepitopes of tau were detected in immunoprecipitates using specific antibodies. […] Immunoprecipitates were determined by Western blotting (FIGS. 4A-4C) and quantified by densitometry (FIG. 4D).
FIG. 42, also in two panels, FIGS. 42A and 42B, illustrates that FLNA-binding compounds reduce tau phosphorylation at all three phosphorylation sites using the compounds and concentrations of FIG. 41 using immunoprecipitation and Western blotting. […] The three phosphoepitopes of tau were detected in immunoprecipitates using specific antibodies.
FIG. 44, also in two panels, FIG. 44A and FIG. 44B, illustrates that FLNA-binding compounds reduce tau phosphorylation at all three phosphorylation sites using the compounds and concentrations of FIG. 43 using immunoprecipitation and Western blotting. […] The three phosphoepitopes of tau were detected in immunoprecipitates using specific antibodies. Aβ42 strongly promotes tau phosphorylation at all three sites.
FIG. 46, also in two panels, FIG. 46A and FIG. 46B, illustrates that FLNA-binding compounds reduce tau phosphorylation at all three phosphorylation sites using the compounds and concentrations of FIG. 45 using immunoprecipitation and Western blotting. […] The three phosphoepitopes of tau were detected in immunoprecipitates using specific antibodies. Aβ42 strongly promotes tau phosphorylation at all three sites.
The three primary phosphorylation sites on tau protein were examined for their phosphorylation levels compared to total tau protein content. Tau, phosphorylated at these three sites, is a constituent of NFTs. Consistent with effects on FLNA-α7nAChR association, and ERK2 activation, all of the FLNA-binding compounds assayed, with 10 minute pre-incubation, decreased Aβ42-induced phosphorylation of tau at all three sites (FIG. 4).

[3] = test system: NMDAR; experiment: Levels of signaling molecules associated with NMDAR (NR1) in slice cultures; type: cell-based, rat; conditions: 0.1 μM Aβ42
Description: NMDAR activation and signaling was initiated by incubation of 6 slices with either 0.3 mM Mg^2+ containing KR (LMKR; basal) or LMKR containing 10 μM NMDA and 1 μM glycine at 37° C. for 30 minutes.
Ligand stimulation was terminated by the addition of 1 ml of ice-cold Ca^2+-free K-R containing mixture of protein phosphatase inhibitors, 0.5 mM EGTA and 0.1 mM EDTA. Brain slices were harvested by a brief centrifugation and were homogenized in 0.25 ml of ice-cold immunoprecipitation buffer. The homogenates were centrifuged at 1000×g for 5 minutes (4° C.) and the supernatant (post-mitochondrial fraction) was sonicated for 10 seconds on ice.
The resultant lysates were cleared by centrifugation at 50,000×g for 5 minutes and diluted with 0.75 ml of immunoprecipitation buffer. Protein concentrations were measured by Bradford method (Bio-Rad).
To determine the association of NMDARs with PSD-95, as well as NMDAR signaling, the levels of NMDAR subunits, PSD-95 and NMDAR-associated signaling molecules were measured in anti-NR1 immunoprecipitates. In these studies, brain slice lysates (100 μg) were immunoprecipitated overnight at 4° C. with 2 μg of immobilized anti-NR1 onto covalently conjugated protein A-agarose beads (Pierce-ENDOGEN). […]

[4] = test system: FLNA-TLR4 association; experiment: FLNA association with TLR4 in organotypic frontocortical slice cultures; type: cell-based, rat; conditions: 100 nM Aβ42, 16 hours, compound added simultaneously
Description: (§1) Tissue was harvested and solubilized, and a specific antibody against FLNA was used to immunoprecipitate FLNA and associated proteins. The FLNA immunoprecipitate was size-fractionated using SDS-PAGE, transferred and probed with specific antibodies directed against each of the following receptors: α7nAChR, TLR4, IR and MOR.
(§2) Rat brain slice organotypic culture methods were modified from those published previously. [Adamchik et al., Brain Res Brain Res Protoc 5:153-158 (2000).] FCX slices ([…]) were transferred to sterile, porous Millicell-CM inserts (0.4 μm). Each culture insert unit contained two brain slices and was placed into individual wells of a 12-well culture tray in 2 ml medium: 50% MEM with Earl's salts, 2 mM L-glutamine, 25% Earl's balanced salt solution, 6.5 g/l D-glucose, 20% fetal bovine serum (FBS), 5% horse serum, 25 mM HEPES buffer, pH 7.2, and […]. […]
(§3) The level of FLNA-associated α7nAChRs was determined using a co-immunoprecipitation/Western blotting method as described previously. […] The levels of FLNA-associated α7nAChR, TLR4, IR and MOR were assessed by Western blotting using specific antibodies directed against the respective proteins and the blot stripped and re-probed for FLNA for immunoprecipitation/loading control.

[5] = test system: tau (pSer202, pThr231, pThr181); experiment: Tau phosphorylation in organotypic frontocortical slice cultures; type: cell-based, rat; conditions: C0105 0.1, 1, 10 nM; C0114 1, 10 nM; simultaneous with Aβ42
Description: On the day of study, medium was removed, the brain slices rinsed and incubated in 0.1% FBS-containing medium for 4 hours at 36° C. in 5% CO2.
The levels of phosphorylated tau (pSer202tau, pThr231tau and pThr181tau) as well as total tau precipitated (loading controls) are assessed by Western blotting using specific antibodies directed against each of the phosphoepitopes and the anti-tau, respectively.

[6] = test system: voltage-gated Ca2+ channel mediated Ca2+ influx; type: cell-based, rat; conditions: slice cultures
[7] = test system: α7nAChR; type: cell-based, rat
[8] = test system: NMDAR; type: cell-based, rat; conditions: slice cultures, 0.1 μM Aβ42
[9] = test system: α7nAChR (Aβ42 binding); experiment: FITC-Aβ42 binding to biotinylated α7nAChR-containing SK-N-MC cell fragments; set-up: species or system human; conditions: added simultaneously, 30° C., 30 minutes
[10] = test system: FLNA-α7nAChR association; experiment: FLNA association with α7nAChR in organotypic frontocortical slice cultures; type: cell-based, rat; conditions: 100 nM Aβ42, 16 hours, compound added simultaneously
Description: as §1, §2, §3

[11] = test system: insulin receptor (IR); experiment: IR activation and signaling (pY1150/1151 IRβ, IRS-1) in slice cultures; type: cell-based, rat; conditions: insulin stimulation
Description: IR activation and signaling was initiated by incubation of 6 slices that were further chopped horizontally into 100 μm (100 μm×200 μm×3 mm) with either KR (basal) or KR containing 1 nM insulin at 37° C. for 30 minutes. […] Ligand stimulation was terminated by the addition of 1 ml of ice-cold Ca^2+-free K-R containing mixture of protein phosphatase inhibitors, 0.5 mM EGTA and 0.1 mM EDTA. Brain slices were harvested by a brief centrifugation and were homogenized in 0.25 ml of ice-cold immunoprecipitation buffer. The homogenates were centrifuged at 1000×g for 5 minutes (4° C.) and the supernatant (post-mitochondrial fraction) was sonicated for 10 seconds on ice. […] The resultant lysates were then cleared by centrifugation at 50,000×g for 5 minutes and diluted with 0.75 ml of immunoprecipitation buffer. Protein concentrations were measured by Bradford method (Bio-Rad).
In these experiments, brain slice lysates (100 μg) were immunoprecipitated overnight (about 18 hours) at 4° C. with 2 μg of immobilized anti-IRβ onto covalently conjugated protein A-agarose beads (Pierce-ENDOGEN). […]

T1 sequence (A0A8I5ZV49 entry or part of it, one chain of several): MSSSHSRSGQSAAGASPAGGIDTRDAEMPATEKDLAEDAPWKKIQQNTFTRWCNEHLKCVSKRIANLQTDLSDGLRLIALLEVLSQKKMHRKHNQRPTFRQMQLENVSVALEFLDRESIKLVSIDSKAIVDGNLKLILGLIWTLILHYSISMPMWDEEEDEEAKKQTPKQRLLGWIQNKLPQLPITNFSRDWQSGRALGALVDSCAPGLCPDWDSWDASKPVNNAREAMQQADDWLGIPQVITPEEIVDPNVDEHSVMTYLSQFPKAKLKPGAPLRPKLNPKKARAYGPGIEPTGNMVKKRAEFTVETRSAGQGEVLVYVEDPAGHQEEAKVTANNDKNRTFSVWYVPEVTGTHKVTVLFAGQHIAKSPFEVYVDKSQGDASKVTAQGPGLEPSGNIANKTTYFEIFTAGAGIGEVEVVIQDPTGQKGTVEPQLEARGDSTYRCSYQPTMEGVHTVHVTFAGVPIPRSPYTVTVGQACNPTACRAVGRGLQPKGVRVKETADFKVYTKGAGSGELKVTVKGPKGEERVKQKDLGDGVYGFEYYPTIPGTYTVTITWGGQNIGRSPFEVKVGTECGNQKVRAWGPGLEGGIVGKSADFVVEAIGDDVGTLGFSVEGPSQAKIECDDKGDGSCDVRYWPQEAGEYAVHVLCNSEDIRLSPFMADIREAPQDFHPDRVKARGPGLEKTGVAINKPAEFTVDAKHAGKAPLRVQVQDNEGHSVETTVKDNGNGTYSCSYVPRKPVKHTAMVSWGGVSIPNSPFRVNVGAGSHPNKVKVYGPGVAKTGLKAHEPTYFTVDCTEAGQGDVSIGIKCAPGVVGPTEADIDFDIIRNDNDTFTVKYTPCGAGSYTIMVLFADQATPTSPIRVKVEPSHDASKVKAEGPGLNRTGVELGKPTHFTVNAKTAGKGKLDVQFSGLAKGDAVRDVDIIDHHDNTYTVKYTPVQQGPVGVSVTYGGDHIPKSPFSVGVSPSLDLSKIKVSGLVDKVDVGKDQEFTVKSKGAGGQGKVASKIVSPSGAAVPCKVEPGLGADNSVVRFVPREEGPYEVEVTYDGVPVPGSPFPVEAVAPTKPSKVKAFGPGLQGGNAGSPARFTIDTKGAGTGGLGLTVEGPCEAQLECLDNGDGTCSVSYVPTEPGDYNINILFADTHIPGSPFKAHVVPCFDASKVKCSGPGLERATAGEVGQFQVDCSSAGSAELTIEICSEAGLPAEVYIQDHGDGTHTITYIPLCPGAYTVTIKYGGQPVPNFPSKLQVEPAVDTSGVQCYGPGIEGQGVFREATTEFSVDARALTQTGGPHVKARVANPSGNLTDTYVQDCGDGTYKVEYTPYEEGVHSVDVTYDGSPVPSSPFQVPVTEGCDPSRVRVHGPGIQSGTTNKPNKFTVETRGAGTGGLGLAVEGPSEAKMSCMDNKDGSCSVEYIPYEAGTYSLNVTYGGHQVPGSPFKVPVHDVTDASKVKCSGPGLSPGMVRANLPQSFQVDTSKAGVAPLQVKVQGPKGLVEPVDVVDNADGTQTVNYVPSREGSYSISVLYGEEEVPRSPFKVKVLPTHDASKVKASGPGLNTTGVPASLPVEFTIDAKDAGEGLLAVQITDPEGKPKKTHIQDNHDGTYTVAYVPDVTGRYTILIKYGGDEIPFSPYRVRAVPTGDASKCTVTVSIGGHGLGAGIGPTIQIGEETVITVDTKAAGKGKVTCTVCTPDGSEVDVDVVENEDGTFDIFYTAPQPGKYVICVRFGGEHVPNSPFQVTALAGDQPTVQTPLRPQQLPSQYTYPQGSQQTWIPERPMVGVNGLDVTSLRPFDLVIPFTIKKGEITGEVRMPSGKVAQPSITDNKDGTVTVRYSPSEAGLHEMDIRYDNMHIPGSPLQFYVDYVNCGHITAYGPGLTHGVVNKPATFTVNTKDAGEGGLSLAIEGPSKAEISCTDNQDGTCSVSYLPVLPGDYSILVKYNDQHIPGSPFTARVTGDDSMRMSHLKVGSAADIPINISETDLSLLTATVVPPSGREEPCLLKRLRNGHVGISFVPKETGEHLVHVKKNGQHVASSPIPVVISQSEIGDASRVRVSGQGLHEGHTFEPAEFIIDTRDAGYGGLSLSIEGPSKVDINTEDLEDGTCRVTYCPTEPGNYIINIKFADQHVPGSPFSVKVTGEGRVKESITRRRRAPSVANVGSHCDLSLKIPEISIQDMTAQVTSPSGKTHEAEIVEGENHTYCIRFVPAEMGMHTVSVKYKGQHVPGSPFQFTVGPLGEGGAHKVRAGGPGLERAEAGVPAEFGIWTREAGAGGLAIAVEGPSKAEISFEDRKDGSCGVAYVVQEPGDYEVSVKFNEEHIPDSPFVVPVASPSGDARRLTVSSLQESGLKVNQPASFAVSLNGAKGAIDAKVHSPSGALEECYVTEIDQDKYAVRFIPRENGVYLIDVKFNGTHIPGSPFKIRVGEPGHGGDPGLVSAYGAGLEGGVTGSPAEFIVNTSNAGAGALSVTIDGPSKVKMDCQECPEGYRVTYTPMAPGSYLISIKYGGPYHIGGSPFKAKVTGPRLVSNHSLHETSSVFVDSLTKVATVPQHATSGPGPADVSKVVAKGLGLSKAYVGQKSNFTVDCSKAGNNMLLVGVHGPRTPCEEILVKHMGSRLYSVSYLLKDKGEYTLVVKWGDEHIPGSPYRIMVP

In the case of `O=C1CNC2(CCN(C(=S)Nc3ccccc3)CC2)N1Cc1ccccc1` [Compound A], the “α7nAChR-FLNA association (ratio α7nAChR/FLNA)” value [1] is reported as “statistically different from Aβ42 alone” and the “Aβ42-induced tau phosphorylation at S202, T231 and T181” value [2] is reported as “reduced tau phosphorylation with simultaneous administration at 1 nM”.
In the case of `O=C1CNC2(CCN(C(=S)Nc3cccnc3)CC2)N1Cc1ccccc1` [Compound B], the “α7nAChR-FLNA association (ratio α7nAChR/FLNA)” value [1] is reported as “statistically different from Aβ42 alone”.
For `CC(=O)c1ccc(S(=O)(=O)N2CCC3(CC2)NC(=O)CO3)cc1` [Compound C0087], the “α7nAChR-FLNA association (ratio α7nAChR/FLNA)” value [1] was “reduce α7nAChR-FLNA association”.
With `CC(=O)c1ccc(S(=O)(=O)N2CC(CN(C)C)OC23CCN(C)CC3)cc1` (stereo not drawn) [Compound C0108] the “α7nAChR-FLNA association (ratio α7nAChR/FLNA)” value [1] was “reduce α7nAChR-FLNA association”.
`O=C1CNC2(CCNCC2)N1Cc1ccccc1` [Compound C0114] was tested, and the “Levels of six signaling molecules associated with NR1 after NMDA and glycine” value [3] was “fully restored function”, the “Aβ42-induced increase in FLNA-TLR4 association” value [4] was “reduced the FLNA-α7AchR association at both concentrations and the FLNA-TLR4 association at 10 nM” and the Aβ42-induced tau phosphorylation [5] was “reduced tau phosphorylation at all three phosphorylation sites”. The “Aβ42-induced reduction of K+-evoked calcium influx” value [6] was “completely reversed”, the “Aβ42-induced impairment in α7nAChR function (calcium influx after PNU282987)” value [7] was “restored functioning of this receptor” and the “Aβ42-induced impairment in NMDAR function (calcium influx after NMDA and glycine)” value [8] was “significantly restoring NMDAR function”. For the same compound, the “Inhibition of FITC-Aβ42 binding” value ([9]; 0.1 nM compound) was 27.8±3.3%, the “Inhibition of FITC-Aβ42 binding” value ([9]; 1 nM compound) was 40.0±2.1% and the “Inhibition of FITC-Aβ42 binding” value ([9]; 10 nM compound) was 53.4±3.6%. For the same compound, the “Aβ42-induced increase in FLNA-α7nAChR association” value [10] was “reduced the FLNA-α7AchR association at both concentrations” and the “Aβ42-induced IR signaling impairments (IRS-1 association, pY1150/1151 IRβ)” value [11] was “normalized the signaling impairments”.
With `O=C1CNC2(CCN(CC3CC3)CC2)N1Cc1ccccc1` [Compound C0124] the “α7nAChR-FLNA association (ratio α7nAChR/FLNA)” value [1] was “reduce α7nAChR-FLNA association” and the “Aβ42-induced tau phosphorylation at S202, T231 and T181” value [2] was “reduced this phosphorylation at both concentrations”.
In the case of `Cc1ccc(S(=O)(=O)N2CCOC23CCN(CC2CC2)CC3)cc1` [Compound C0134], the “α7nAChR-FLNA association (ratio α7nAChR/FLNA)” value [1] is reported as “statistically different from Aβ42 alone”.
With `O=C(Nc1ccccc1)N1CCC2(CC1)NCC(=O)N2Cc1ccccc1` [Compound C] the “α7nAChR-FLNA association (ratio α7nAChR/FLNA)” value [1] was “statistically different from Aβ42 alone” and the “Aβ42-induced tau phosphorylation at S202, T231 and T181” value [2] was “did not provide a statistically significant result at two phosphorylation positions when simultaneously administered”.
